Source: US8927715B2, “Inhibitors of 11β-hydroxysteroid dehydrogenase type 1” (Vitae Pharmaceuticals, Inc., priority 2006, dated 2015)

Molecular target: human 11β-HSD1 (Homo sapiens, UniProt P28845)
Assay: Inhibition of a microsomal preparation of 11β-HSD1, SPA (Biological Test Example 2)
Format: biochemical
Design: expressed in transfected cells; host or cells: CHO cells (microsomes)
Conditions: read-out: Biological Test Example 2 (IC50 class)
Experimental: All reactions are carried out at room temperature in 96 well clear flexible PET Microbeta plates (PerkinElmer). […] After a 10 minute pre-incubation, 50 μL of enzyme solution containing microsomes isolated from CHO cells overexpressing human 11β-HSD1 (10-20 μg/ml of total protein) is added, and the plates are then incubated for 90 minutes at room temperature. The reaction is stopped by adding 50 μl of the SPA beads suspension containing […] 18β-glycyrrhetinic acid, 5 mg/ml protein A coated YSi SPA beads (GE Healthcare) and 3.3 μg/ml of anti-cortisol antibody (East Coast Biologics) in Superblock buffer (Bio-Rad). The plates are then shaken for 120 minutes at room temperature, and the SPA signal corresponding to [^3H]cortisol is measured on a Microbeta plate reader.

Chain of human 11β-HSD1 (P28845 whole entry): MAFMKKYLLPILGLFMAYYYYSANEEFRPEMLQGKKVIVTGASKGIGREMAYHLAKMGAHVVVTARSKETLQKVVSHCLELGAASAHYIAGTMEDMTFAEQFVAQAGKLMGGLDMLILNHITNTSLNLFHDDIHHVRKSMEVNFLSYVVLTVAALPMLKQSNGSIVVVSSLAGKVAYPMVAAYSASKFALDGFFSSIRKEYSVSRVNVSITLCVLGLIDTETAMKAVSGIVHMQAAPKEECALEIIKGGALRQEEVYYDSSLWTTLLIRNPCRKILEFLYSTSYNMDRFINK

| Compound | IC50 [nM] |
| --- | --- |
| CCOC(=O)CC1CC2(CCN(C(=O)NC3C4CC5CC(C4)CC3C5)CC2)c2c(Br)cccc21 (racemic) [Example 42, (±)-Ethyl 2-(7-bromo-1′-((2-adamantyl)carbamoyl)-2,3-dihydrospiro[indene-1,4′-piperidine]-3-yl)acetate] | < 50 |
| O=C(NC1C2CC3CC(C2)CC1C3)N1CCC2(CC1)CC(CCN1CCOCC1)c1cccc(Br)c12 (racemic) [Example 126, (±)-7-Bromo-N-(2-adamantyl)-3-(2-morpholinoethyl)-2,3-dihydrospiro[indene-1,4′-piperidine]-1′-carboxamide] | < 50 |
| CS(=O)(=O)NC(=O)CC1CC2(CCN(C(=O)OC3C4CC5CC(C4)CC3C5)CC2)c2c(Br)cccc21 (racemic) [Example 69, (±)-2-Adamantyl 7-bromo-3-(2-(methylsulfonamido)-2-oxoethyl)-2,3-dihydrospiro[indene-1,4′-piperidine]-1′-carboxylate] | < 50 |
| CN(C)CCNC(=O)CC1CC2(CCN(C(=O)NC3C4CC5CC(C4)CC3C5)CC2)c2c(Br)cccc21 (stereo not drawn) [Example 114, 7-Bromo-N-(2-adamantyl)-3-(2-(2-(dimethylamino)ethylamino)-2-oxoethyl)-2,3-dihydrospiro[indene-1,4′-piperidine]-1′-carboxamide] | < 50 |
| O=C(O)CCC(=O)N1CC2(CCN(C(=O)NC3C4CC5CC(C4)CC3C5)CC2)c2ccccc21 (stereo not drawn) [Example 90, 4-(1′-(2-Adamantylcarbamoyl)spiro[indoline-3,4′-piperidine]-1-yl)-4-oxobutanoic acid] | < 50 |
| CN1C(C)(C)c2ccccc2C12CCN(C(=O)NC1C3CC4CC(C3)CC1C4)CC2 (stereo not drawn) [Example 103, N-(2-Adamantyl)-2,3,3-trimethylspiro[isoindoline-1,4′-piperidine]-1′-carboxamide] | < 50 |
| CN(C)CCCNC(=O)CC1CC2(CCN(C(=O)NC3C4CC5CC(C4)CC3C5)CC2)c2c(Br)cccc21 (stereo not drawn) [Example 117, 7-Bromo-N-(2-adamantyl)-3-(2-(3-(dimethylamino)propylamino)-2-oxoethyl)-2,3-dihydrospiro[indene-1,4′-piperidine]-1′-carboxamide] | < 50 |
| CC(C)(CC(=O)N1Cc2ccccc2C2(CCN(C(=O)NC3C4CC5CC(C4)CC3C5)CC2)C1)C(=O)O (stereo not drawn) [Example 97, 4-(1′-(2-Adamantylcarbamoyl)-1H-spiro[isoquinoline-4,4′-piperidine]-2(3H)-yl)-2,2-dimethyl-4-oxobutanoic acid] | < 50 |
| CCOC(=O)CC1CC2(CCN(C(=O)NC3C4CC5CC(C4)CC3C5)CC2)c2c(C)cccc21 (racemic) [Example 47, (±)-Ethyl 2-(1′-((2-adamantyl)carbamoyl)-7-methyl-2,3-dihydrospiro[indene-1,4′-piperidine]-3-yl)acetate] | < 50 |
| CS(=O)(=O)N1Cc2ccccc2C2(CCN(C(=O)OC3C4CC5CC(C4)CC3C5)CC2)C1 (stereo not drawn) [Example 39, 2-Adamantyl 2-(methylsulfonyl)-2,3-dihydro-1H-spiro[isoquinoline-4,4′-piperidine]-1′-carboxylate] | < 50 |
| 3-(1′-((2-Adamantyl)carbamoyl)-1H-spiro[isoquinoline-4,4′-piperidine]-2(3H)-yl)propanoic acid [Example 33] | < 50 |
| Cc1cccc2c1C1(CCN(C(=O)NC3C4CC5CC(C4)CC3C5)CC1)CC2CC(=O)O (racemic) [Example 48, (±)-2-(1′-((2-Adamantyl)carbamoyl)-7-methyl-2,3-dihydrospiro[indene-1,4′-piperidine]-3-yl)acetic acid] | < 50 |
| Cc1ccc2c(c1)C1(CCN(C(=O)NC3C4CC5CC(C4)CC3C5)CC1)CC2CC(=O)O (racemic) [Example 57, (±)-2-(1′-((2-Adamantyl)carbamoyl)-6-methyl-2,3-dihydrospiro[indene-1,4′-piperidine]-3-yl)acetic acid] | < 50 |
| CNCCN(C)C(=O)CC1CC2(CCN(C(=O)NC3C4CC5CC(C4)CC3C5)CC2)c2c(Br)cccc21 (stereo not drawn) [Example 115, 7-Bromo-N-(2-adamantyl)-3-(2-(methyl(2-(methylamino)ethyl)amino)-2-oxoethyl)-2,3-dihydrospiro[indene-1,4′-piperidine]-1′-carboxamide] | < 50 |
| O=C(O)CC1CC2(CCN(C(=O)OC3C4CC5CC(C4)CC3C5)CC2)c2c(Br)cccc21 (racemic) [Example 63, (±)-2-(7-Bromo-1′-((2-adamantyloxy)carbonyl)-2,3-dihydrospiro[indene-1,4′-piperidine]-3-yl)acetic acid] | < 50 |
| O=C(NC1C2CC3CC(C2)CC1C3)N1CCC2(CC1)CC(Cc1nnn[nH]1)c1ccccc12 (racemic) [Example 46, (±)-3-((1H-Tetrazol-5-yl)methyl)-N-(2-adamantyl)-2,3-dihydrospiro[indene-1,4′-piperidine]-1′-carboxamide] | < 50 |
| CC(C)S(=O)(=O)N1Cc2ccccc2C2(CCN(C(=O)OC3C4CC5CC(C4)CC3C5)CC2)C1 (stereo not drawn) [Example 40, 2-Adamantyl 2-(isopropylsulfonyl)-2,3-dihydro-1H-spiro[isoquinoline-4,4′-piperidine]-1′-carboxylate] | < 50 |
| CCOC(=O)C(C)(C)C1CC2(CCN(C(=O)NC3C4CC5CC(C4)CC3C5)CC2)c2c(Br)cccc21 (racemic) [Example 67, (±)-Ethyl 2-(7-bromo-1′-((2-adamantyl)carbamoyl)-2,3-dihydrospiro[indene-1,4′-piperidine]-3-yl)-2-methylpropanoate] | < 50 |
| NC(=O)C12CC3CC(C1)C(OC(=O)N1CCC4(CC1)CC(CC(=O)O)c1ccccc14)C(C3)C2 (stereo not drawn) [Example 73, 2-(1′-((1-Carbamoyl-4adamantyloxy)carbonyl)-2,3-dihydrospiro[indene-1,4′-piperidine]-3-yl)acetic acid] | < 50 |
| CS(=O)(=O)NC(=O)CC1CC2(CCN(C(=O)NC3C4CC5CC(C4)CC3C5)CC2)c2c(Br)cccc21 (racemic) [Example 70, (±)-7-Bromo-N-(2-adamantyl)-3-(2-(methylsulfonamido)-2-oxoethyl)-2,3-dihydrospiro[indene-1,4′-piperidine]-1′-carboxamide] | < 50 |
| NCC1CC2(CCN(C(=O)OC3C4CC5CC(C4)CC3C5)CC2)c2c(Br)cccc21 (racemic) [Example 124, (±)-2-Adamantyl 3-(aminomethyl)-7-bromo-2,3-dihydrospiro[indene-1,4′-piperidine]-1′-carboxylate] | < 50 |
| COC(=O)CC1CCC2(CC1)CCN(C(=O)OC1C3CC4CC(C3)CC1C4)CC2 (stereo not drawn) [Example 79, (2-Adamantyl) 9-(2-methoxy-2-oxoethyl)-3-azaspiro[5.5]undecane-3-carboxylate] | < 50 |
| CN1C(C)(C)c2cccc(Cl)c2C12CCN(C(=O)NC1C3CC4CC(C3)CC1C4)CC2 (stereo not drawn) [Example 105, 7-Chloro-N-(2-adamantyl)-2,3,3-trimethylspiro[isoindoline-1,4′-piperidine]-1′-carboxamide] | < 50 |
| COC(=O)CCS(=O)(=O)N1Cc2ccccc2C2(CCN(C(=O)OC3C4CC5CC(C4)CC3C5)CC2)C1 (stereo not drawn) [Example 107, 2-Adamantyl 2-(3-methoxy-3-oxopropylsulfonyl)-2,3-dihydro-1H-spiro[isoquinoline-4,4′-piperidine]-1′-carboxylate] | < 50 |
